Converted amounts (≈) assume the structure as drawn. “Also recorded” adds a separate entry of the source. Where two headings read alike, the source gives them in different places.
Key:
Trichomonas vaginalis = test: broth dilution assay, antitrichomonal activity; assay type: cell-based; conditions: in vitro
[1] = system: Bacteroides melanogenicus; test: agar-dilution MIC vs. anaerobic bacteria; assay type: cell-based; conditions: Table 6
potentiometric titration = assay type: physicochemical; conditions: 66% dimethylformamide in water, initial pH 4.1
Protocol: Antibiotic A-32256 is a green, crystalline solid having a melting point of about 196°-198° C. The antibiotic has a molecular weight of 402, as determined by electron-impact mass spectrometry, and an approximate elemental analysis as follows: 68.71% carbon, 4.48% hydrogen, 6.93% nitrogen, and 19.21% oxygen. Based on elemental analysis and molecular weight, an empirical formula of C23 H18 N2 O5 is assigned to antibiotic A-32256. […] Antibiotic A-32256 has specific rotation of [α]D^25 +5° (c 0.96, chloroform).

[2] = system: Peptostreptococcus intermedius; test: agar-dilution MIC vs. anaerobic bacteria; assay type: cell-based; conditions: strain 1264, Table 6
mosquito = mosquito larvacide activity; assay type: in vivo; conditions: application rate of about 20 ppm
Source text: Antibiotic A-32256 is also active as a mosquito larvacide at an application rate of about 20 ppm.

Staphylococcus aureus [3] = test: disc-plate screening procedure, zone of inhibition
Fusobacterium symbiosum = test: agar-dilution MIC vs. anaerobic bacteria; assay type: cell-based; conditions: strain 1470; Table 6
[4] = system: Peptococcus asaccharolyticus; test: agar-dilution MIC vs. Peptococcus and Peptostreptococcus species; assay type: cell-based; conditions: Table 9
Protocol: (§1) The agar-dilution procedure described by the International Collaborative Study (ICS) group was used to determine MIC values.
(§2) The MIC values were determined by the agar-dilution method, and are recorded in Table 9, which follows.

Peptococcus prevoti [5] = test: as above; assay type: cell-based; conditions: Table 9
Protocol: as §1, §2

[6] = system: Peptostreptococcus anaerobius; test: as above; assay type: cell-based; conditions: Table 9
Protocol: as §1, §2

Peptococcus constellatus = test: as above; assay type: cell-based; conditions: Pc. constellatus 1468; Table 9
Protocol: as §1, §2

[7] = system: Peptostreptococcus intermedius; test: as above; assay type: cell-based; conditions: Table 9
Protocol: as §1, §2

Peptococcus magnus = test: as above; assay type: cell-based; conditions: Table 9
Protocol: as §1, §2

[8] = system: Fusobacterium necrophorum; test: agar-dilution MIC vs. anaerobic bacteria; assay type: cell-based; conditions: Fusobacterium necrophorum; strain 6054A; Table 6; read-out: MIC
Propionibacterium acnes = test: agar-dilution MIC vs. anaerobic bacteria; assay type: cell-based; conditions: strain 79; Table 6
Streptococcus pneumoniae = test: disc-plate screening procedure, zone of inhibition; conditions: read-out: Zone Diameter
Streptococcus pyogenes = test: disc-plate screening procedure, zone of inhibition; conditions: read-out: Zone Diameter
[9] = improvement of ruminant feed efficiency; assay type: in vivo
Protocol: Suitable rates of administration are in the range of from about 10 to about 100 g/ton (from about 11 to about 111 ppm) of feed, or from about 0.25 mg to about 2.9 mg/kg of body weight of the ruminant. The preferred level of administration of A-32256 is from about 0.5 to about 1 mg/kg of body weight of ruminant, or about 50 g/ton of feed.

Bacteroides vulgatis = test: agar-dilution MIC vs. anaerobic bacteria; assay type: cell-based; conditions: strain 1211; Table 6
Bacteroides fragilis = test: agar-dilution MIC vs. anaerobic bacteria; assay type: cell-based; conditions: Table 6
Clostridium septicum = test: agar-dilution MIC vs. anaerobic bacteria; assay type: cell-based; conditions: strain 1128, Table 6
Protocol: as §1
(§3) The MIC was determined by the agar-dilution method.

[10] = system: Bacteroides thetaiotaomicron; test: agar-dilution MIC vs. anaerobic bacteria; assay type: cell-based
Protocol: as §1, §3

Peptococcus prevoti [11] = test: agar-dilution MIC vs. anaerobic bacteria; assay type: cell-based
Protocol: as §1, §3

Actinomyces israellii = test: agar-dilution MIC vs. anaerobic bacteria; assay type: cell-based; conditions: strain W855; Table 6
Protocol: as §1, §3

solubility = assay type: physicochemical
Streptococcus faecalis = test: agar-dilution screening procedure, MIC; assay type: cell-based; conditions: Enterococcus faecalis, S. faecalis X66
Protocol: as §1
(§4) The results obtained from tests of antibiotic A-32256 in the agar-dilution screening procedure are recorded in Table 5, which follows.

Staphylococcus aureus [12] = test: agar-dilution screening procedure, MIC; assay type: cell-based
Protocol: as §1, §4

Erwinia amylovora = test: agar-dilution screening procedure, MIC; assay type: cell-based
Protocol: as §1, §4

Bacteroides corrodens = test: agar-dilution MIC vs. anaerobic bacteria; assay type: cell-based; conditions: Eikenella corrodens; strain 1874; Table 6

Compound: Cc1cccc(O)c1C(=O)OC(C)c1cccc2nc3c(C(=O)O)cccc3nc12 (stereo not drawn) [Antibiotic A-32256, 6-[1-[(2-hydroxy-6-methylbenzoyl)oxy]-ethyl]-1-phenazinecarboxylic acid]
- antitrichomonal activity (Trichomonas vaginalis): has shown antitrichomonal activity in vitro
- MIC ([1]; Bacteroides, strain 1856/28, read-out: MIC): 16 µg/mL (≈ 39.8 µM)
- MIC ([1]; strain 2736): 16 µg/mL (≈ 39.8 µM)
- pKa (potentiometric titration; pH 4.1, first titratable group): ~5.02
- pKa (potentiometric titration; pH 4.1, second titratable group): ~7.2
- MIC [2]: ≤ 0.5 µg/mL
- mosquito larvacide activity (mosquito): active
- zone of inhibition at 30 µg/disc (Staphylococcus aureus [3]; read-out: Zone Diameter, S. aureus 3055, benzylpenicillin-susceptible, 30 mcg/disc): 23 mm
- zone of inhibition at 300 µg/disc (Staphylococcus aureus [3]; read-out: Zone Diameter, S. aureus 3055, benzylpenicillin-susceptible, 300 mcg/disc): 26.2 mm
- zone of inhibition at 30 µg/disc (Staphylococcus aureus [3]; read-out: Zone Diameter, S. aureus 3074, benzylpenicillin-resistant, 30 mcg/disc): 10 mm
- zone of inhibition at 300 µg/disc (Staphylococcus aureus [3]; read-out: Zone Diameter, S. aureus 3074, benzylpenicillin-resistant, 300 mcg/disc): 12.2 mm
- zone of inhibition at 30 µg/disc (Staphylococcus aureus [3]; read-out: Zone Diameter, S. aureus 3130, methicillin-resistant, 30 mcg/disc): 25.8 mm
- zone of inhibition at 300 µg/disc (Staphylococcus aureus [3]; read-out: Zone Diameter, S. aureus 3130, methicillin-resistant, 300 mcg/disc): 30 mm
- MIC (Fusobacterium symbiosum): 2 µg/mL (≈ 4.97 µM)
- MIC ([4]; Pc. asaccharolyticus 1302): 2 µg/mL (≈ 4.97 µM)
- MIC ([4]; Pc. asaccharolyticus 1344): 2 µg/mL (≈ 4.97 µM)
- MIC (Peptococcus prevoti [5]; Pc. prevoti 1281): 2 µg/mL (≈ 4.97 µM)
- MIC (Peptococcus prevoti [5]; Pc. prevoti 1293): 16 µg/mL (≈ 39.8 µM)
- MIC (Peptococcus prevoti [5]; Pc. prevoti 1407): 2 µg/mL (≈ 4.97 µM)
- MIC ([6]; Peptostreptococcus anaerobius, Ps. anaerobius 1428, read-out: MIC): ≤ 0.125 µg/mL
- MIC ([6]; Ps. anaerobius 8): 2 µg/mL (≈ 4.97 µM)
- MIC ([6]; Ps. anaerobius 52): 8 µg/mL (≈ 19.9 µM)
- MIC ([6]; Ps. anaerobius 59): 0.5 µg/mL (≈ 1.24 µM)
- MIC ([6]; Ps. anaerobius 1418): 0.25 µg/mL (≈ 0.621 µM)
- MIC ([6]; Ps. anaerobius 1451): 0.5 µg/mL (≈ 1.24 µM)
- MIC ([6]; Ps. anaerobius 1477): 8 µg/mL (≈ 19.9 µM)
- MIC (Peptococcus constellatus): 8 µg/mL (≈ 19.9 µM)
- MIC ([7]; Ps. intermedius 1264): 2 µg/mL (≈ 4.97 µM)
- MIC ([7]; Ps. intermedius 1524, read-out: MIC): ≤ 0.125 µg/mL
- MIC ([7]; Ps. intermedius 1624): 8 µg/mL (≈ 19.9 µM)
- MIC (Peptococcus magnus; Pc. magnus 1401): 2 µg/mL (≈ 4.97 µM)
- MIC (Peptococcus magnus; Pc. magnus 1421): 0.5 µg/mL (≈ 1.24 µM)
- MIC (Peptococcus magnus; Pc. magnus 1477): 0.5 µg/mL (≈ 1.24 µM)
- MIC [8]: 1 µg/mL (≈ 2.49 µM)
- MIC (Propionibacterium acnes): 2 µg/mL (≈ 4.97 µM)
- zone of inhibition at 30 µg/disc (Streptococcus pneumoniae): 14 mm
- zone of inhibition at 300 µg/disc (Streptococcus pneumoniae): 16 mm
- zone of inhibition at 30 µg/disc (Streptococcus pyogenes): 11 mm
- zone of inhibition at 300 µg/disc (Streptococcus pyogenes): 13 mm
- improvement of ruminant feed efficiency [9]: has shown utility for the improvement of ruminant feed efficiency
- MIC (Bacteroides vulgatis): 8 µg/mL (≈ 19.9 µM)
- MIC (Bacteroides fragilis; Bacteroides fragilis, strain 111, read-out: MIC): 1 µg/mL (≈ 2.49 µM)
- MIC (Bacteroides fragilis; Bacteroides fragilis, strain 1936B, read-out: MIC): 1 µg/mL (≈ 2.49 µM)
- MIC (Bacteroides fragilis; strain 1877): 8 µg/mL (≈ 19.9 µM)
- MIC (Clostridium septicum): ≤ 0.5 µg/mL
- MIC [10]: ≤ 0.5 µg/mL
- MIC (Peptococcus prevoti [11]): ≤ 0.5 µg/mL
- MIC (Actinomyces israellii): 16 µg/mL (≈ 39.8 µM)
- solubility (solubility; acetone): moderately soluble
- solubility (solubility; alkaline aqueous solutions): soluble
- solubility (solubility; chloroform): easily soluble
- solubility (solubility; cyclohexane): sparingly soluble
- solubility (solubility; dimethyl sulfoxide): moderately soluble
- solubility (solubility; dioxane): moderately soluble
- solubility (solubility; ethanol): sparingly soluble
- solubility (solubility; ethyl acetate): moderately soluble
- solubility (solubility; hexane): sparingly soluble
- solubility (solubility; methanol): sparingly soluble
- solubility (solubility; pyridine): easily soluble
- solubility (solubility; tetrahydrofuran): easily soluble
- solubility (solubility; water): not water soluble; also recorded: insoluble
- MIC (Streptococcus faecalis): 4 µg/mL (≈ 9.94 µM)
- MIC (Staphylococcus aureus [12]; S. aureus 3055, benzylpenicillin-susceptible): 1 µg/mL (≈ 2.49 µM)
- MIC (Staphylococcus aureus [12]; S. aureus 3074, benzylpenicillin-resistant): < 0.5 µg/mL
- MIC (Erwinia amylovora): 4 µg/mL (≈ 9.94 µM)
- MIC (Bacteroides corrodens): ≤ 0.5 µg/mL
